Eleven compounds from patent publication US20230295118A1 (EnhancedBio Inc., priority 2022, published 2023) can be followed below.

Holding throughout (type): cell-based
Assay [1] deals with T1, CDK4 (Homo sapiens, UniProt P11802).
T1 construct: endogenous in cells
The assay can be described thus: CDK4 degradation (DC50, Dmax).

The target in assay [2] is T2, CDK6 (Homo sapiens, UniProt Q00534).
T2 construct: endogenous in cells
The assay can be described thus: CDK6 degradation (DC50, Dmax).

Assay [3] concerns mantle cell lymphoma cell (Mino or JeKo-1). The assay can be described thus: Antiproliferative effect, MTS cell viability assay. To be noted: 72 h; for IC50: mantle cell lymphoma cell (Mino or JeKo-1), MTS assay, read-out: IC50 (anti-proliferation). Summed up: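 MTS read-out (formazan absorbance at 490 nm) after 72 h exposure of Mino cells to 0–1 μM compound (0.0001, 0.001, 0.01, 0.1, 1 μM). Palbociclib and abemaciclib served as positive controls.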

T1 sequence (P11802 whole entry): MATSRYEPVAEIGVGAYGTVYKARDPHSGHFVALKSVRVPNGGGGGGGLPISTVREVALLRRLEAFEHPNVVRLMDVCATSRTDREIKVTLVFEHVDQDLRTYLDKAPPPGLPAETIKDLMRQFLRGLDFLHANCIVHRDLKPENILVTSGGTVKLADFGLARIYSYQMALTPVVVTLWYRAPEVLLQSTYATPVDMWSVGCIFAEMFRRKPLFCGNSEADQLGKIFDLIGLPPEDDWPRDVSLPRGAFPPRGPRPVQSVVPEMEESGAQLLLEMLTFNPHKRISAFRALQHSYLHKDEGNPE
T2 sequence (Q00534 whole entry): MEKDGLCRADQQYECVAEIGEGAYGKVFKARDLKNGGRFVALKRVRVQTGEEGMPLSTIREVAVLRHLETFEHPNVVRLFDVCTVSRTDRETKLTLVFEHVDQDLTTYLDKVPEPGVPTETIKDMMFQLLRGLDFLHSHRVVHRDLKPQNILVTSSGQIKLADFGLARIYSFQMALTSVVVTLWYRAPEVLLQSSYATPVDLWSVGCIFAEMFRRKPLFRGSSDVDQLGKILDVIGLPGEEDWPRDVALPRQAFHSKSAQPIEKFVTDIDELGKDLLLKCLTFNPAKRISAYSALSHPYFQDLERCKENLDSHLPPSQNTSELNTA

As for `CC(=O)c1c(C)c2cnc(Nc3ccc(C4CCN(C(=O)C5CN(c6ccc(C(=O)NC7CCC(=O)NC7=O)cc6)C5)CC4)cn3)nc2n(C2CCCC2)c1=O` (centres unmarked) [Compound 131, 4-(3-(4-(6-((6-acetyl-8-cyclopentyl-5-methyl-7-oxo-7,8-dihydropyrido[2,3-d]pyrimidin-2-yl)amino)pyridin-3-yl)piperidine-1-carbonyl)azetidin-1-yl)-N-(2,6-dioxopiperidin-3-yl)benzamide], in assay [1], the DC50 (commonly the concentration giving 50% degradation) lay within 0.05 to 0.2 µM and the maximal degradation (Dmax) (as a rule, the greatest extent of degradation seen) is above 60%. In assay [2], this compound registered a DC50 of 0.05 to 0.2 µM and a Dmax above 60%. Moreover, the IC50 in assay [3] is 0.05 to 0.2 µM.

For the compound `CC(=O)c1c(C)c2cnc(Nc3ccc(N4CCN(CC5CCN(c6ccc7c(c6)CN(C6CCC(=O)NC6=O)C7=O)CC5)CC4)cn3)nc2n(C2CCCC2)c1=O` (centres unmarked) [Compound 66, 3-(5-(4-((4-(6-((6-acetyl-8-cyclopentyl-5-methyl-7-oxo-7,8-dihydropyrido[2,3-d]pyrimidin-2-yl)amino)pyridin-3-yl)piperazin-1-yl)methyl)piperidin-1-yl)-1-oxoisoindolin-2-yl)piperidine-2,6-dione], in assay [1], the DC50 was 0.05 to 0.2 µM and the Dmax was above 80%. In assay [2], this compound registered a DC50 below 0.05 µM and a Dmax above 80%. The IC50 in assay [3] was below 0.05 µM.

On to `CC(=O)c1c(C)c2cnc(Nc3ccc(N4CCN(C(=O)N5CCN(CCN6CCC(c7ccc8c(c7)CN(C7CCC(=O)NC7=O)C8=O)CC6)CC5)CC4)cn3)nc2n(C2CCCC2)c1=O` (centres unmarked) [Compound 28, 3-(5-(1-(2-(4-(4-(6-((6-acetyl-8-cyclopentyl-5-methyl-7-oxo-7,8-dihydropyrido[2,3-d]pyrimidin-2-yl)amino)pyridin-3-yl)piperazine-1-carbonyl)piperazin-1-yl)ethyl)piperidin-4-yl)-1-oxoisoindolin-2-yl)piperidine-2,6-dione], for which, in assay [1], the DC50 is above 0.2 µM and the Dmax was above 60%. Moreover, in assay [2], the DC50 was above 0.2 µM and the maximal degradation (Dmax) is above 60%. In assay [3], the IC50 fell in the range of 0.05 to 0.2 µM.

Turning to `Cc1nc2c(F)cc(-c3nc(Nc4ccc(CC5CCN(CC6CCN(c7ccc8c(c7)C(=O)N(C7CCC(=O)NC7=O)C8=O)CC6)CC5)cn4)ncc3F)cc2n1C(C)C` (centres unmarked) [Compound 157, 2-(2,6-dioxopiperidin-3-yl)-5-(4-((4-((6-((5-fluoro-4-(4-fluoro-1-isopropyl-2-methyl-1H-benzo[d]imidazol-6-yl)pyrimidin-2-yl)amino)pyridin-3-yl)methyl)piperidin-1-yl)methyl)piperidin-1-yl)isoindoline-1,3-dione], the DC50 in assay [1] and in assay [2] was below 0.05 µM in each case. Also, the Dmax in assay [1] and in assay [2] was above 80% in each case. Further, the IC50 in assay [3] is below 0.05 µM.

In assay [1], `CC(=O)c1c(C)c2cnc(Nc3ccc(C4CCN(CC5CN(c6ccc(NC7CCC(=O)NC7=O)cc6)C5)CC4)cn3)nc2n(C2CCCC2)c1=O` (centres unmarked) [Compound 128, 3-((4-(3-((4-(6-((6-acetyl-8-cyclopentyl-5-methyl-7-oxo-7,8-dihydropyrido[2,3-d]pyrimidin-2-yl)amino)pyridin-3-yl)piperidin-1-yl)methyl)azetidin-1-yl)phenyl)amino) piperidine-2,6-dione] had a DC50 below 0.05 µM and a Dmax above 80%. In assay [2], this compound displayed a DC50 below 0.05 µM and a Dmax above 80%. The IC50 in assay [3] is below 0.05 µM.

For `CC(=O)c1c(C)c2cnc(Nc3ccc(N4CCN(CC5CCN(C(=O)N6CCC(c7ccc8c(c7)CN(C7CCC(=O)NC7=O)C8=O)CC6)CC5)CC4)cn3)nc2n(C2CCCC2)c1=O` (centres unmarked) [Compound 34], the 50% degradation concentration (DC50) in assay [1] and in assay [2] was above 0.2 µM throughout. Also, the Dmax in assay [1] and in assay [2] was above 50% each time. The IC50 in assay [3] was above 0.2 µM.

For the compound `CC(=O)c1c(C)c2cnc(Nc3ccc(N4CCN(C(=O)N5CCC(CC6CCN(c7ccc8c(c7)C(=O)N(C7CCC(=O)NC7=O)C8=O)CC6)CC5)CC4)cn3)nc2n(C2CCCC2)c1=O` (centres unmarked) [Compound 13, 5-(4-((1-(4-(6-((6-acetyl-8-cyclopentyl-5-methyl-7-oxo-7,8-dihydropyrido[2,3-d]pyrimidin-2-yl)amino)pyridin-3-yl)piperazine-1-carbonyl)piperidin-4-yl)methyl)piperidin-1-yl)-2-(2,6-dioxopiperidin-3-yl)isoindoline-1,3-dione], the half-maximal degradation concentration (DC50) in assay [1] and in assay [2] was 0.05 to 0.2 µM throughout. The Dmax in assay [1] and in assay [2] was above 60% in each case. For the same compound, the IC50 in assay [3] fell in the range of 0.05 to 0.2 µM.

On to `CC(=O)c1c(C)c2cnc(Nc3ccc(N4CCN(CCN5CCN(c6ccc7c(c6)CN(C6CCC(=O)NC6=O)C7=O)CC5)CC4)cn3)nc2n(C2CCCC2)c1=O` (centres unmarked) [Compound 68, 3-(5-(4-(2-(4-(6-((6-acetyl-8-cyclopentyl-5-methyl-7-oxo-7,8-dihydropyrido[2,3-d]pyrimidin-2-yl)amino)pyridin-3-yl)piperazin-1-yl)ethyl)piperazin-1-yl)-1-oxoisoindolin-2-yl)piperidine-2,6-dione], for which the DC50 in assay [1] and in assay [2] was 0.05 to 0.2 µM throughout. The Dmax in assay [1] was above 60%; in assay [2], above 80%. In assay [3], the IC50 was in the range of 0.05 to 0.2 µM.

In assay [1], `Cc1nc2c(F)cc(-c3nc(Nc4ccc(CN5CCN(CCNc6cccc7c6C(=O)N(C6CCC(=O)NC6=O)C7=O)CC5)cn4)ncc3F)cc2n1C(C)C` (centres unmarked) [Compound 92, 2-(2,6-dioxopiperidin-3-yl)-4-((2-(4-((6-((5-fluoro-4-(4-fluoro-1 isopropyl-2-methyl-1H-benzo[d]imidazol-6-yl)pyrimidin-2-yl)amino)pyridin-3-yl)methyl)piperazin-1-yl)ethyl)amino) isoindoline-1,3-dione] returned a DC50 of 0.05 to 0.2 µM and a Dmax above 80%. In assay [2], this compound came in with a DC50 below 0.05 µM and a Dmax above 80%. Also, in assay [3], the IC50 was below 0.05 µM. For the same compound, the “inhibition of cell proliferation of Mino cells” value in assay [3] (Mino cells, 0-1 μM, result in words) is “dose-dependent inhibition of cell proliferation”.

`Cc1nc2c(F)cc(-c3nc(Nc4ccc(CC5CCN(C6CCN(c7ccc8c(c7)CN(C7CCC(=O)NC7=O)C8=O)CC6)CC5)cn4)ncc3F)cc2n1C(C)C` (centres unmarked) [Compound 170, 3-(5-(4-((6-((5-fluoro-4-(4-fluoro-1-isopropyl-2-methyl-1H-benzo[d]imidazol-6-yl)pyrimidin-2-yl)amino)pyridin-3-yl)methyl)-[1,4′-bipiperidin]-1′-yl)-1-oxoisoindolin-2-yl)piperidine-2,6-dione]: in assay [1], the DC50 was below 0.05 µM and the Dmax was above 80%. In assay [2], the DC50 is below 0.05 µM and the Dmax is above 60%. In assay [3], the IC50 is below 0.05 µM.

In assay [1], `Cc1nc2c(F)cc(-c3nc(Nc4ccc(CC5CCN(CC6CCN(c7ccc8c(c7)CN(C7CCC(=O)NC7=O)C8=O)CC6)CC5)cn4)ncc3F)cc2n1C(C)C` (centres unmarked) [Compound 158, 3-(5-(4-((4-((6-((5-fluoro-4-(4-fluoro-1-isopropyl-2-methyl-1H-benzo[d]imidazol-6-yl)pyrimidin-2-yi)amino)pyridin-3-yl)methyl)piperidin-1-yl)methyl)piperidin-1-yl)-1-oxoisoindolin-2-yl)piperidine-2,6-dione] had a DC50 of 0.05 to 0.2 µM and a Dmax above 80%. In assay [2], this compound returned a DC50 of 0.05 to 0.2 µM and a Dmax above 80%. In assay [3], the IC50 was below 0.05 µM.
